Like-named read-outs stand apart in the source and are kept apart here.
Assays:
HUVEC cells [1] = test: EF-induced reorientation of endothelial cells, drug inhibition (orientation index Oi); assay type: cell-based
Experimental: HUVEC cells were seeded in a trough formed by two parallel (1 cm apart) strips of glass coverslip (No. 1, length of 22 mm) fixed to the base of the dish with silicone grease. Scratch lines were made perpendicular to the long axis of the chamber with a fine sterile needle and used as reference marks for directed cell migration. Cells were incubated for 24-48 hours (37° C., 5% CO2) before a roof coverslip was applied and sealed with silicone grease. The final dimensions of the chamber, through which current was passed, were 22×10×0.2 mm. Agar-salt bridges not less than 15 cm long were used to connect silver/silver-chloride electrodes in beakers of Steinberg's solution (58 mM NaCl, 0.67 mM KCl, 0.44 mM Ca(NO3)2, 1.3 mM MgSO4, 4.6 mM Trizma base, pH 7.8-8.0), to pools of excess culture medium at either side of the chamber. Field strengths were measured directly at the beginning of, the end of and during each experiment. No fluctuations in field strength were observed. […] The same concentration of drug was present during EF (electric field) exposure in a CO2 incubator.
A series of images was taken with an image analyser immediately before EF exposure and at 4, 8 and 24 hours of EF exposure. Cell orientation was quantified as an orientation index (Oi), which is defined as Oi=cos 2(α), where α is the angle formed by the long axis of a cell with a line drawn perpendicular to the field lines. A cell with its long axis parallel to the vector of the EF will have an Oi of −1, and a cell with its long axis exactly perpendicular to the EF vector will have an Oi of +1. A randomly oriented population of cells will have an average Oi {defined as [Σn cos 2(α)]÷n} of 0. The significance of this two-dimensional orientation distribution against randomness was calculated using Rayleigh's distribution. A long:short axis ratio was calculated for assessment of elongation.

HUVEC cells [2] = test: EF-induced elongation of endothelial cells, drug inhibition (long:short axis ratio); assay type: cell-based; conditions: for long:short axis ratio / long axis in EF-treated cells: drug 50 μM
Experimental: HUVEC cells were seeded in a trough formed by two parallel (1 cm apart) strips of glass coverslip (No. 1, length of 22 mm) fixed to the base of the dish with silicone grease. Scratch lines were made perpendicular to the long axis of the chamber with a fine sterile needle and used as reference marks for directed cell migration. Cells were incubated for 24-48 hours (37° C., 5% CO2) before a roof coverslip was applied and sealed with silicone grease. The final dimensions of the chamber, through which current was passed, were 22×10×0.2 mm. Agar-salt bridges not less than 15 cm long were used to connect silver/silver-chloride electrodes in beakers of Steinberg's solution (58 mM NaCl, 0.67 mM KCl, 0.44 mM Ca(NO3)2, 1.3 mM MgSO4, 4.6 mM Trizma base, pH 7.8-8.0), to pools of excess culture medium at either side of the chamber. Field strengths were measured directly at the beginning of, the end of and during each experiment. No fluctuations in field strength were observed. […] (50 μM), the Rho kinase inhibitor Y27632 (50 μM), both Akt and Rho kinase inhibitors (10 μM each) or latrunculin (50 nM) for 1 hour before EF stimulation. The same concentration of drug was present during EF (electric field) exposure in a CO2 incubator.
A series of images was taken with an image analyser immediately before EF exposure and at 4, 8 and 24 hours of EF exposure. Cell orientation was quantified as an orientation index (Oi), which is defined as Oi=cos 2(α), where α is the angle formed by the long axis of a cell with a line drawn perpendicular to the field lines. A cell with its long axis parallel to the vector of the EF will have an Oi of −1, and a cell with its long axis exactly perpendicular to the EF vector will have an Oi of +1. […] The significance of this two-dimensional orientation distribution against randomness was calculated using Rayleigh's distribution. A long:short axis ratio was calculated for assessment of elongation.
HUVEC cells elongated dramatically in an EF. […] We quantified the elongation of the cells using a long:short axis ratio. […]

[3] = drug 50 μM, 1 hour before and during EF

With “1-L-6-hydroxymethyl-chiro-inositol 2-[(R)-2-O-methyl-3-O-octadecylcarbonate] [Akt inhibitor]” as the compound, how does the “reorientation / orientation response of cells in an EF” value (“reorientation / orientation response” for short) (HUVEC cells [1]; [3]) read?
Its value is “significantly decreased”.

What about the “long:short axis ratio / long axis in EF-treated cells” value (HUVEC cells [2]) of the same compound?
The value was “significantly decreased”.

How did the “orientation response in EF” value (HUVEC cells [1]; latrunculin 50 nM) turn out when `C/C1=C/C(=O)O[C@@H]2C[C@@H](CC[C@H](C)/C=C\C=C\CC1)O[C@@](O)([C@@H]1CSC(=O)N1)C2` [Latrunculin A] was run?
The value was “suppressed the orientation response significantly”.

And the EF-induced elongation response (HUVEC cells [2]; latrunculin 50 nM)?
The EF-induced elongation response was “completely abolished”.

Which “orientation index Oi” value (HUVEC cells [1]) does the source give for `N#CC(=C(/N)Sc1ccccc1N)/C(C#N)=C(\N)Sc1ccccc1N` [U0126] here?
The value was 0.33±0.03.

And the “reorientation / orientation response” value (HUVEC cells [1])?
Its value is “decreased the orientation to a similar extent”.

How did the “reorientation / orientation response” value (HUVEC cells [1]; [3]) turn out when `COc1cc2ncnc(Nc3ccc(Cl)cc3F)c2cc1OC` [VEGFR inhibitor, 4-[(4′-chloro-2′-fluoro)phenylamino]-6,7-dimethoxyquinazoline] was run?
The value was “completely abolished”.

Which “orientation index Oi” value (HUVEC cells [1]; 10 μM) does the source give for `C[C@@H](N)[C@H]1CC[C@H](C(=O)Nc2ccncc2)CC1` [Y27632] here?
The value was 0.55±0.05.

And the “orientation response in EF” value (HUVEC cells [1]; 10 μM, 20 μM and 50 μM)?
Its value is “decreased the orientation response significantly”.

And the “orientation index Oi” value (HUVEC cells [1]; 20 μM)?
The value was 0.45±0.05.

And the “orientation index Oi” value (HUVEC cells [1]; 50 μM)?
The value was 0.24±0.05.

And the “long:short axis ratio / long axis in EF-treated cells” value (HUVEC cells [2])?
Its value is “significantly decreased”.

Reference: patent US20170128720A1, “METHODS AND DEVICES FOR MODULATING GENE EXPRESSION AND ENZYME ACTIVITY” (VOMARIS INNOVATIONS, INC, priority 2014, published 2017)
